From patent US20220220155A1, “VASCULAR C[…] USE THEREOF” (priority 2019, published 2022)
Where a SMILES comes first, the peptide text is derived from it. [ ]: non-standard residue; d: D form.

Assays:
SMase-treated LDL = molecular target: T1, SMase-treated LDL (Homo sapiens, UniProt P04114); experiment: Anti-LDL aggregation assay, turbidimetry, aggregation induced by sphingomyelinase (SMase); format: biochemical; settings: peptide 10 μM (compound/ApoB-100 4.7/1), human LDL 1.44 mg/mL, 40 U/L Bacillus cereus SMase, 18 hours, 37° C., absorbance at 405 nm, Equation I
T1 construct: from tissue; host or cells: pooled normolipemic human plasma
T1 sequence (P04114 28-4563): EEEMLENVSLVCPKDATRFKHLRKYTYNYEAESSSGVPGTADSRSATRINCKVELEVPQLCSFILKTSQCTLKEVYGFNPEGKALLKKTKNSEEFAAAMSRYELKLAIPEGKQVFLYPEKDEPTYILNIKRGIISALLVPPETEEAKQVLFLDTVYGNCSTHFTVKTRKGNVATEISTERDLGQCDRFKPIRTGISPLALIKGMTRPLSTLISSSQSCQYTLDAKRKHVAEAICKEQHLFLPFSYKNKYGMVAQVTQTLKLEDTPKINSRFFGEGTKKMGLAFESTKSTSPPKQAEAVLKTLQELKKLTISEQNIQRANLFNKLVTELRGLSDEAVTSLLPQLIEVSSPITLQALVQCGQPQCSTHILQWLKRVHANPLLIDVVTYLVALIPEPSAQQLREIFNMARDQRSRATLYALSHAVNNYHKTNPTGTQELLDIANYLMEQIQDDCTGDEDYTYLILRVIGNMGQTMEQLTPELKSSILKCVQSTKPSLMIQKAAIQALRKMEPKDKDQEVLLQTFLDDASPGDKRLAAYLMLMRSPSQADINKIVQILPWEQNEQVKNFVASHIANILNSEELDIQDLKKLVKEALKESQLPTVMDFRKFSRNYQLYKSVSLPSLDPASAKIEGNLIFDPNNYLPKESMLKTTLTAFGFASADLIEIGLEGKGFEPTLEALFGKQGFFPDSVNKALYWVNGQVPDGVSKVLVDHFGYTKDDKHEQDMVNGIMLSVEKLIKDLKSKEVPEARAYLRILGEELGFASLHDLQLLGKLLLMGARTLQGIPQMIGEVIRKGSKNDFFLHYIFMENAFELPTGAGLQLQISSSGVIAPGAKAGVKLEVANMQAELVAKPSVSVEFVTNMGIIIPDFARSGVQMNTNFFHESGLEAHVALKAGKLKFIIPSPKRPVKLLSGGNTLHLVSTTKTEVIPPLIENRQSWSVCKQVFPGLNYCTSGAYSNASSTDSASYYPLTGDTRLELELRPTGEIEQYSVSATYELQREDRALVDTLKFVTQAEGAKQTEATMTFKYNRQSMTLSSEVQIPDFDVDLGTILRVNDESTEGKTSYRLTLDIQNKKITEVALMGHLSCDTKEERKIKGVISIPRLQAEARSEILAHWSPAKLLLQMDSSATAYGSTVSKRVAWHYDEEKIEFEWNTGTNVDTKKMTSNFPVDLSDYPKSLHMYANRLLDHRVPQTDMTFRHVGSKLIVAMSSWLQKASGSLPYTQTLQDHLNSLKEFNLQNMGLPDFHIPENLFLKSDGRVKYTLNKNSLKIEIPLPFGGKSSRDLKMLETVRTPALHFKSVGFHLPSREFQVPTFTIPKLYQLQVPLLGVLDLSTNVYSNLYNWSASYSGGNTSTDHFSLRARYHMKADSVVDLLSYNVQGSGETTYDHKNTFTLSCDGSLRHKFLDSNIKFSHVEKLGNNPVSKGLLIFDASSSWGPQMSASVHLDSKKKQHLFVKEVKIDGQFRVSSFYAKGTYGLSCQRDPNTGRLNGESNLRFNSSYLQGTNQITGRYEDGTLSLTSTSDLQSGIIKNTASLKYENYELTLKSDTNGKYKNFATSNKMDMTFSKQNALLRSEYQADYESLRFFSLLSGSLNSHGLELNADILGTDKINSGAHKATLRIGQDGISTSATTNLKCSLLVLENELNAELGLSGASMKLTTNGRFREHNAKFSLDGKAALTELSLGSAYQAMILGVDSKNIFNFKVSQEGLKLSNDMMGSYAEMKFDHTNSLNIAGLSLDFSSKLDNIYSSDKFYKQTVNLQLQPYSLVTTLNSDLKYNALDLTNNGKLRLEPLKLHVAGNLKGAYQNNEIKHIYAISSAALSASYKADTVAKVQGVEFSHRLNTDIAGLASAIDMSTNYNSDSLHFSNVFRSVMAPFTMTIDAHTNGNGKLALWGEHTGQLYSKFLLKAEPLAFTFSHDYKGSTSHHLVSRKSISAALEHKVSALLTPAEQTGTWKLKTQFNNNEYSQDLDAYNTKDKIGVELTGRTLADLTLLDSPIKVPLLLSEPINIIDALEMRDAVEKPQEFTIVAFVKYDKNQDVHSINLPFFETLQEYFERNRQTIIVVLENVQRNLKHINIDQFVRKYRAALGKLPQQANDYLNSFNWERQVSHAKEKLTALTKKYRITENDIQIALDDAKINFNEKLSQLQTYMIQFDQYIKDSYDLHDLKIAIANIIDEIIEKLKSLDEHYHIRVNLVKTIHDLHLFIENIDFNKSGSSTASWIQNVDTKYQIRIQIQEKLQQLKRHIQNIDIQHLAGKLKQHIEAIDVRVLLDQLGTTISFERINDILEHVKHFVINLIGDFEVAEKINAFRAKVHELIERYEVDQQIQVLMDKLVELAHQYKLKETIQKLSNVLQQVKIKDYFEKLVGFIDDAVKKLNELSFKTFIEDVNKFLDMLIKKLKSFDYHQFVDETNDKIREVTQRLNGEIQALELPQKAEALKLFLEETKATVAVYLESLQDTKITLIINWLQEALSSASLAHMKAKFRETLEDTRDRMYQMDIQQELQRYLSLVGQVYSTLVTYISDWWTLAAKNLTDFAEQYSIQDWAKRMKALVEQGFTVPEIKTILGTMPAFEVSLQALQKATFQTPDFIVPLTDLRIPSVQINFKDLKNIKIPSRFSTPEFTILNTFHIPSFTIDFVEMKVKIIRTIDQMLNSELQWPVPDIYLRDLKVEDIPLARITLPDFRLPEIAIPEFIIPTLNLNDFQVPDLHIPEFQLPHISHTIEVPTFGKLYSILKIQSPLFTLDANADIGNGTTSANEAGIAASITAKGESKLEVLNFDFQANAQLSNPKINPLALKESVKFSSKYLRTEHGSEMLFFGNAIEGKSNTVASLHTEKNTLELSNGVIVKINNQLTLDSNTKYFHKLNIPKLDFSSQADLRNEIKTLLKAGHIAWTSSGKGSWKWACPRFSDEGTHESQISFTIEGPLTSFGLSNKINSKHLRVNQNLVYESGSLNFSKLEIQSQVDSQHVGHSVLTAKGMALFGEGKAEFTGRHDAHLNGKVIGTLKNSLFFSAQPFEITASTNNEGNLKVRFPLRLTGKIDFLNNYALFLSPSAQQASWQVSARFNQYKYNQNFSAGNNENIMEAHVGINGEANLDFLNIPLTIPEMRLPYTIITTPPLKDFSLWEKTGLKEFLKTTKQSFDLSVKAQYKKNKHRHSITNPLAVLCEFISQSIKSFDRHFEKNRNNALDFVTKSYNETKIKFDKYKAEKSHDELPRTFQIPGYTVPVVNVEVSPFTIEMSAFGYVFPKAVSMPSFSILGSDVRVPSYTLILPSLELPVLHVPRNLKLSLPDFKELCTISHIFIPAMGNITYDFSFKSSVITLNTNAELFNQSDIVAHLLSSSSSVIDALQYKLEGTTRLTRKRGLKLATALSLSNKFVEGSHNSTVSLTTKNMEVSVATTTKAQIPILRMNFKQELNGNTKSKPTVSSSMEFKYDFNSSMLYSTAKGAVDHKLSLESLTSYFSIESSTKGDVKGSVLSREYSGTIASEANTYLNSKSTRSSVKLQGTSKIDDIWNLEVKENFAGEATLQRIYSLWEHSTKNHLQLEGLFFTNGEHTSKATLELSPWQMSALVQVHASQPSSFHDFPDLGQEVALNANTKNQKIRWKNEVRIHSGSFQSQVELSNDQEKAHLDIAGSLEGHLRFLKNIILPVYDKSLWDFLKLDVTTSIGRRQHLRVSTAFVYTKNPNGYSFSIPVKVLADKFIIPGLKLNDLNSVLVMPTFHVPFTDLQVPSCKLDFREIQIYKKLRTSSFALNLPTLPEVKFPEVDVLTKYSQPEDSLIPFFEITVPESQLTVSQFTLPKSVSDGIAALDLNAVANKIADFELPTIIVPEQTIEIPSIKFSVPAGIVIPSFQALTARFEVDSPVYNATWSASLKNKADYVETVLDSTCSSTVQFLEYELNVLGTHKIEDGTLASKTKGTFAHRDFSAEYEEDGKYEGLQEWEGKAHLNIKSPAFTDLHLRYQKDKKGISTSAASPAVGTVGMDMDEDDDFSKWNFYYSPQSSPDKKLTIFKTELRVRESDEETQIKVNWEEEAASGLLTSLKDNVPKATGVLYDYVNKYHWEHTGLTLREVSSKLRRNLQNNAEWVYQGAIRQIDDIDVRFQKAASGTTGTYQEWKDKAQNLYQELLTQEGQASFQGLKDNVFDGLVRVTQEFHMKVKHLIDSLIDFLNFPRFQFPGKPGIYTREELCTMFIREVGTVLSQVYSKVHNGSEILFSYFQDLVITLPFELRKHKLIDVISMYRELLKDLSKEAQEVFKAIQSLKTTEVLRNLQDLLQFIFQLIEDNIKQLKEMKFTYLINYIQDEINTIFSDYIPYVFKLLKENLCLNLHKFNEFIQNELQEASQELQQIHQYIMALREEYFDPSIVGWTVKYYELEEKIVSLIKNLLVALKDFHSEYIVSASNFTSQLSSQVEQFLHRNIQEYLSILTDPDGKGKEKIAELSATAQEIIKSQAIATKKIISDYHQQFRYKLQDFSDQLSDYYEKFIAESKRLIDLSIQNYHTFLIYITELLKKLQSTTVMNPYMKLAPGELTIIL
Method: (§1) The efficacy of the novel compounds to inhibit the aggregation of LDL has been tested in two parallel turbidimetric assays differing from each other only in the enzyme used to induce LDL aggregation, namely sphingomyelinase (SMase) and phospholipase A2 (PLA2), respectively.
(§2) Human LDL (d1.019-d1.063 g/mL) were obtained from pooled normolipemic human plasma by sequential ultracentrifugation in a KBr density gradient. Briefly, VLDL were first discarded after spinning plasma at 36.000 rpm for 18 h at 4° C., VLDL-free plasma was layered with 1.063 g/mL KBr solution and centrifuged at 36,000 rpm for 18 h at 4° C. LDL were dialyzed against 0.02 M Tris, 0.15 M NaCl, 1 mM EDTA, pH 7.5 for 18 hours, and then against normal saline for 2 hours. Finally, isolated LDL were filter-sterilized. Protein concentration was determined using a colorimetric assay.
(§3) Human LDL particles (1.44 mg/mL) were incubated with 40 U/L of Bacillus cereus SMase or with 50 μg/L of type II secretory PLA2 from honey bee venom in 20 mM Tris buffer (pH 7.0) containing 150 mM NaCl, 2 mM CaCl2), and MgCl2 at 37° C. LDL incubation with SMase and PLA2 was performed at peptide concentration of 10 μM (ratio compound/ApoB-100: 4.7/1) for 18 hours. LDL lipolysis was stopped by addition of EDTA (final concentration 10 mM).
(§4) The efficiency of each novel compound to inhibit LDL aggregation induced by SMase and PLA2 was estimated by turbidimetry measuring the absorbance at a wavelength of 405 nm. Thus, the inhibitory activity was calculated according to Equation I.
(§5) a corresponds to the absorbance value in the presence of nLDL particles, LDL aggregating enzyme (i.e., SMase or PLA2) and test compound;
(§6) b corresponds to the absorbance value in the presence of only nLDL particles;
(§7) c corresponds to the absorbance value in the presence of nLDL particles and LDL aggregating enzyme (i.e., SMase or PLA2);

PLA2-treated LDL = molecular target: T2, PLA2-treated LDL (Homo sapiens, UniProt P04114); experiment: Anti-LDL aggregation assay, turbidimetry, aggregation induced by phospholipase A2 (PLA2); format: biochemical; settings: 18 h, read-out: Inhibition of LDL aggregation, PLA2-treated LDL
T2 construct: from tissue; host or cells: pooled normolipemic human plasma
T2 sequence (P04114 28-4563): as above
Method: as §1, §2, §3, §4, §5, §6, §7

[1] = test system: human coronary vascular smooth muscle cells (hcVSMC); experiment: Inhibition of intracellular cholesterol accumulation induced by SMase (CE/FC ratio); format: cell-based; settings: hcVSMC exposed 2 hours to SMase-LDL treated overnight with peptide 10 μM; CE and FC by thin layer chromatography and densitometry, Equation II
Method: Thus, the inhibitory effect of the novel compounds on the intracellular cholesterol accumulation has been analysed in terms of decrease in the ratio of intracellular CE and free cholesterol FC content of hcVSMC exposed to LDL and SMase-LDL.
All cells used were from a unique batch in order to prevent variability from cell origin. Cell quiescence was induced by maintaining the cell culture for 24 hours in a medium. Serum-deprived cells between passages 4 and 8 were used for experiments. VSMCs at these passages appeared as a relatively homogeneous population, showing a hill-and-valley confluence pattern. Cell monolayers were grown in vascular cell basal medium supplemented with vascular smooth muscle growth kit components. Quiescent cells were 2-hours exposed to LDL treated with SMase (in absence or presence of peptides) overnight at a concentration of 10 μM previously checked its aggregation by a turbidimetry test. Cells were then either collected for lipid extraction or processed for confocal microscopy analysis.
Following the lipoprotein incubation period, hcVSMC were exhaustively washed (twice with PBS, twice with PBS supplemented with 1% BSA, and once with PBS supplemented with both 1% BSA and 100 U/mL heparin), before they were harvested into 1 mL of 0.15 M NaOH. Lipids were extracted using the Bligh and Dyer method. The lipid extract was redissolved in dichloromethane, applied to silica gel plates, and separated by thin layer chromatography. A mixture of cholesterol and cholesterol palmitate, were also run as standards. Heptane or a solvent combination of heptane/diethylether/acetic acid (74:21:4, v/v/v) were used as chromatographic mobile phase. After lipid separation, the plates were dried and stained as previously reported. Finally, the spots corresponding to cholesteryl ester (CE) and free cholesterol (FC) were quantitated by densitometry.
The efficacy of each novel compound to decrease the ratio of intracellular cholesteryl esters (CE) and free cholesterol (FC) content of hcVSMC exposed to LDL and SMase-LDL was calculated according to Equation II.
a corresponds to the CE/FC ratio in hcVSMC exposed to SMase-LDL and in the presence of the test compound.
b corresponds to the CE/FC ratio in hcVSMC exposed to nLDL in the absence of the test compound.
c corresponds to the CE/FC ratio in hcVSMC exposed to SMase-LDL in the absence of the test compound.

| SMILES | inhibition at 10 µM (SMase-treated LDL) [%] | inhibition at 10 µM (PLA2-treated LDL) [%] | CE/FC ratio decrease (%) [1] [%] |
| --- | --- | --- | --- |
| CC(=O)N[C@H](CC(=O)O)C(=O)N[C@H](CO)C(=O)N[C@H](CCC(=O)O)C(=O)N[C@H](CC(=O)O)C(=O)N[C@H](CC(N)=O)C(=O)N[C@H](C)C(=O)N[C@H](CC(=O)O)C(=O)N[C@H](CCC(=O)O)C(=O)N[C@H](CCC(=O)O)C(=O)N[C@H](C)C(N)=O [Example 16, Ac-D-Asp-D-Ser-D-Glu-D-Asp-D-Asn-D-Ala-D-Asp-D-Glu-D-Glu-D-Ala-NH2] (Ac-[dD][dS][dE][dD][dN][dA][dD][dE][dE][dA]-NH2) | 94 | 61.9 | 69.5 |
| CC(=O)N[C@H](CO)C(=O)N[C@H](CCC(=O)O)C(=O)N[C@H](CC(=O)O)C(=O)N[C@H](CC(N)=O)C(=O)N[C@H](C)C(=O)N[C@H](CC(=O)O)C(=O)N[C@H](CCC(=O)O)C(=O)N[C@H](CCC(=O)O)C(=O)N[C@H](C)C(N)=O [Example 3, Ac-D-Ser-D-Glu-D-Asp-D-Asn-D-Ala-D-Asp-D-Glu-D-Glu-D-Ala-NH2] (Ac-[dS][dE][dD][dN][dA][dD][dE][dE][dA]-NH2) | 90 | 37.2 | – |
| CC(=O)N[C@H](CO)C(=O)N[C@H](CCC(=O)O)C(=O)N[C@H](CC(=O)O)C(=O)N[C@H](CCC(N)=O)C(=O)N[C@H](CO)C(=O)N[C@H](CCC(=O)O)C(=O)N[C@H](CCC(=O)O)C(=O)N[C@H](CCC(=O)O)C(=O)N[C@H](CCC(N)=O)C(N)=O [Example 4, Ac-D-Ser-D-Glu-D-Asp-D-Gln-D-Ser-D-Glu-D-Glu-D-Glu-D-Gln-NH2] (Ac-[dS][dE][dD][dQ][dS][dE][dE][dE][dQ]-NH2) | 91.5 | 32.6 | – |
| CC(=O)N[C@H](CC(=O)O)C(=O)N[C@H](CO)C(=O)N[C@H](CCC(=O)O)C(=O)N[C@H](CC(=O)O)C(=O)N[C@H](CC(N)=O)C(=O)N[C@H](CCCCN)C(=O)N[C@H](CC(=O)O)C(=O)N[C@H](CCC(=O)O)C(=O)N[C@H](CCC(=O)O)C(=O)N[C@H](CC(N)=O)C(N)=O [Example 18, Ac-D-Asp-D-Ser-D-Glu-D-Asp-D-Asn-D-Lys-D-Asp-D-Glu-D-Glu-D-Asn-NH2] (Ac-[dD][dS][dE][dD][dN][dK][dD][dE][dE][dN]-NH2) | 85.1 | 55.1 | 47.6 |
| CC(=O)N[C@H](CC(=O)O)C(=O)N[C@H](CO)C(=O)N[C@H](CCC(=O)O)C(=O)N[C@H](CC(=O)O)C(=O)N[C@H](CC(N)=O)C(=O)N[C@H](CO)C(=O)N[C@H](CC(=O)O)C(=O)N[C@H](CCC(=O)O)C(=O)N[C@H](CCC(=O)O)C(=O)N[C@H](C)C(N)=O [Example 15, Ac-D-Asp-D-Ser-D-Glu-D-Asp-D-Asn-D-Ser-D-Asp-D-Glu-D-Glu-D-Ala-NH2] (Ac-[dD][dS][dE][dD][dN][dS][dD][dE][dE][dA]-NH2) | 96 | 95.9 | 90.2 |
| CC(=O)N[C@H](CO)C(=O)N[C@H](CCC(=O)O)C(=O)N[C@H](CC(=O)O)C(=O)N[C@H](CC(N)=O)C(=O)N[C@H](CCCNC(=N)N)C(=O)N[C@H](CC(=O)O)C(=O)N[C@H](CCC(=O)O)C(=O)N[C@H](CCC(=O)O)C(=O)N[C@H](Cc1c[nH]c2ccccc12)C(N)=O [Example 8, Ac-D-Ser-D-Glu-D-Asp-D-Asn-D-Arg-D-Asp-D-Glu-D-Glu-D-Trp-NH2] (Ac-[dS][dE][dD][dN][dR][dD][dE][dE][dW]-NH2) | 64.2 | 3.1 | – |
| CC(=O)N[C@H](CO)C(=O)N[C@H](CCC(=O)O)C(=O)N[C@H](CC(=O)O)C(=O)N[C@H](CC(N)=O)C(=O)N[C@H](CCCCN)C(=O)N[C@H](CC(=O)O)C(=O)N[C@H](CCC(=O)O)C(=O)N[C@H](CCC(=O)O)C(=O)N[C@H](CC(N)=O)C(N)=O [Example 9, Ac-D-Ser-D-Glu-D-Asp-D-Asn-D-Lys-D-Asp-D-Glu-D-Glu-D-Asn-NH2] (Ac-[dS][dE][dD][dN][dK][dD][dE][dE][dN]-NH2) | 91 | 36.4 | 58.8 |
| CC(=O)N[C@H](CO)C(=O)N[C@H](CCC(=O)O)C(=O)N[C@H](CC(=O)O)C(=O)N[C@H](CC(N)=O)C(=O)N[C@H](CCCNC(=N)N)C(=O)N[C@H](CC(=O)O)C(=O)N[C@H](CCC(=O)O)C(=O)N[C@H](CCC(=O)O)C(=O)N[C@H](CC(C)C)C(N)=O [Example 7, Ac-D-Ser-D-Glu-D-Asp-D-Asn-D-Arg-D-Asp-D-Glu-D-Glu-D-Leu-NH2] (Ac-[dS][dE][dD][dN][dR][dD][dE][dE][dL]-NH2) | 44.7 | -1.9 | – |
| CC(=O)NCC(=O)N[C@H](CC(=O)O)C(=O)N[C@H](CC(N)=O)C(=O)N[C@H](CC(=O)O)C(=O)N[C@H](CO)C(=O)N[C@H](CCC(=O)O)C(=O)N[C@H](CC(=O)O)C(=O)N[C@H](CC(N)=O)C(=O)N[C@H](CO)C(=O)N[C@H](CC(=O)O)C(=O)N[C@H](CCC(=O)O)C(=O)N[C@H](CCC(=O)O)C(=O)N[C@H](CC(N)=O)C(N)=O [Example 1, Ac-Gly-D-Asp-D-Asn-D-Asp-D-Ser-D-Glu-D-Asp-D-Asn-D-Ser-D-Asp-D-Glu-D-lu-D-Asn-NH2] (Ac-G[dD][dN][dD][dS][dE][dD][dN][dS][dD][dE][dE][dN]-NH2) | 92.5 | 77.5 | 76.5 |
| CC(=O)N[C@H](CC(N)=O)C(=O)N[C@H](CC(=O)O)C(=O)N[C@H](CO)C(=O)N[C@H](CCC(=O)O)C(=O)N[C@H](CC(=O)O)C(=O)N[C@H](CC(N)=O)C(=O)N[C@H](CO)C(=O)N[C@H](CC(=O)O)C(=O)N[C@H](CCC(=O)O)C(=O)N[C@H](CCC(=O)O)C(=O)N[C@H](CC(N)=O)C(N)=O [Example 11, Ac-D-Asn-D-Asp-D-Ser-D-Glu-D-Asp-D-Asn-D-Ser-D-Asp-D-Glu-D-Glu-D-Asn-NH2] (Ac-[dN][dD][dS][dE][dD][dN][dS][dD][dE][dE][dN]-NH2) | 94.8 | 95.2 | 76.5 |
| CC(=O)N[C@H](CC(=O)O)C(=O)N[C@H](CO)C(=O)N[C@H](CCC(=O)O)C(=O)N[C@H](CC(=O)O)C(=O)N[C@H](CC(N)=O)C(=O)N[C@H](CCCCN)C(=O)N[C@H](CC(=O)O)C(=O)N[C@H](CCC(=O)O)C(=O)N[C@H](CCC(=O)O)C(=O)N[C@H](C)C(N)=O [Example 19, Ac-D-Asp-D-Ser-D-Glu-D-Asp-D-Asn-D-Lys-D-Asp-D-Glu-D-Glu-D-Ala-NH2] (Ac-[dD][dS][dE][dD][dN][dK][dD][dE][dE][dA]-NH2) | 87.5 | 46.2 | 17.7 |
| CC(=O)N[C@H](CO)C(=O)N[C@H](CCC(=O)O)C(=O)N[C@H](CC(=O)O)C(=O)N[C@H](CCC(N)=O)C(=O)N[C@H](C)C(=O)N[C@H](CCC(=O)O)C(=O)N[C@H](CCC(=O)O)C(=O)N[C@H](CCC(=O)O)C(=O)N[C@H](C)C(N)=O [Example 5, Ac-D-Ser-D-Glu-D-Asp-D-Gln-D-Ala-D-Glu-D-Glu-D-Glu-D-Ala-NH2] (Ac-[dS][dE][dD][dQ][dA][dE][dE][dE][dA]-NH2) | 90.1 | 20.7 | – |
